Counter-ions that a name gives are not always drawn. Like-named read-outs stand apart in the source and are kept apart here.
How the values were obtained:
[1] = In vitro binding assay: free test drug recovered after 3 h incubation with and without patiromer in SGF, acetate buffer or SIF; conditions: for SGF / SIF / AB: QSPR input data; for SGF: test matrix SGF; for SIF: test matrix SIF; for AB: test matrix acetate buffer (AB); for In Vitro Binding (% Drug Recovered) SGF (pH 3): simulated gastric fluid, final pH 3.0; for In Vitro Binding (% Drug Recovered) SIF (pH 5.9): simulated intestinal fluid, final pH 5.9; for In vitro patiromer binding category: strong, weak or non-binding
Method: Patiromer binding to test compounds was assessed by comparing free test drug concentrations after incubation with and without patiromer. […] Test drug concentrations were based on the lowest clinically relevant dose of test drug in US prescribing information in a 1-L volume.
Three test buffers were used: simulated gastric fluid without added pepsin (SGF; initial pH 1.2), acetate buffer (AB; initial pH 4.5), and simulated intestinal fluid without added pancreatin (SIF; initial pH 6.8). Tween-20 was included at 0.05% v/v as a surfactant to aid in solubilizing test drugs.
Binding studies were performed in a 10 ml volume in 16×100 mm borosilicate tubes, and incubated for 3 h at 37°C with end-over-end rotation at ~25 rpm. After incubation, patiromer was allowed to settle for 5 min; supernatants were withdrawn and passed through a 0.45 μm filter, collected by centrifugation, and transferred to chromatography vials for analysis. Control samples containing buffer and drug, but without patiromer, were subjected to the same experimental process. For 24 of the test drugs, a reversed phase high performance liquid chromatography method was used for analysis in the three test matrices. […] During method qualification, we conducted a pretest of each drug in test media alone to assure no significant loss in recovery during the incubation or filtration steps. If there was not sufficient recovery compared to theoretical concentration, the drug could not be evaluated in that medium. The recovered drug in the presence or absence of patiromer was used to calculate percent recovery of test drug, and represents the geometric mean of 12 replicates.
To measure binding, each compound was co-incubated with patiromer using the highest single clinical dose of polymer and the minimum clinical dose of test drug. […] Following co-incubation, patiromer and any bound drug were removed by centrifugation and the remaining unbound (recovered) drug was measured in the supernatant.

[2] = logP determination by titration in octanol/water; conditions: octanol/water
From the text: The shift of the aqueous pKas in the presence of octanol was used to determine the logP of the different species.

[3] = logD determination (liquid-liquid distribution chromatography, octanol-coated column); conditions: octanol-coated column with octanol-saturated mobile phase
Method: The logD of the sample was determined at pH 7.4 by liquid-liquid distribution chromatography. Compounds were eluted from an octanol-coated column with an octanol-saturated mobile phase adjusted to pH 7.4. Compound retention time was converted to logD value by comparison to the retention time of a set of standard compounds with well-characterized logD octanol values.

[4] = across SGF, AB and SIF test matrices
[5] = patiromer 25.2 g/L, 3 h, 37°C, geometric mean of 12 replicates
[6] = acetate buffer pH 4.5, patiromer 25.2 g/L, 3 h, 37°C, geometric mean of 12 replicates

Compound | SGF [1] | SIF [1] | AB [1] | Binding categories (level of in vitro interaction with patiromer) [1, 4] | In Vitro Binding (% Drug Recovered) Acetate Buffer (pH 4.5) ([1]; pH 4.5) [%] | In Vitro Binding (% Drug Recovered) SGF (pH 3) [1, 5] [%] | In Vitro Binding (% Drug Recovered) SIF (pH 5.9) [1, 5] [%] | In Vitro Binding (% Drug Recovered) Acetate Buffer (pH 4.5) [1, 6] [%] | In vitro patiromer binding category [1] | Binding categories (level of in vitro interaction with patiromer) [1] | logP [2] | chromatographic logD ([3]; pH 3) | chromatographic logD ([3]; pH 4.5) | chromatographic logD ([3]; pH 5.9)
Cc1cnc(C(=O)NCCc2ccc(S(=O)(=O)NC(=O)NC3CCCCC3)cc2)cn1 [Glipizide] | 72.9 | 98.5 | 96.5 | No binding (<30% drug bound in any test matrix) | 96.5 | 72.9 | 98.5 |  |  |  |  |  |  | 
CCCCC(=O)N(Cc1ccc(-c2ccccc2-c2nnn[nH]2)cc1)[C@H](C(=O)O)C(C)C [Valsartan] | 86.4 | 98 | 101.4 | No binding (<30% drug bound in any test matrix) |  | 86.4 | 98 | 101.4 | non-binding |  |  |  |  | 
O=C([O-])[O-].[Li+].[Li+] [Lithium carbonate] |  |  |  |  |  | 93.3 | 56.9 | 88.8 |  | Weak binder (key: No binding: <30% drug bound in any test matrix; Weak binder: 30–55% bound in one test matrix; Strong binder: >55% bound in two or three test matrices) |  |  |  | 
CC1=C(C(=O)O)N2C(=O)[C@@H](NC(=O)[C@H](N)c3ccccc3)[C@H]2SC1 [Cephalexin] | 88.7 | 104.4 | 95 | No binding (<30% drug bound in any test matrix) |  | 88.7 | 104.4 | 95 | non-binding |  |  |  |  | 
CCOC(=O)C1=C(COCCN)NC(C)=C(C(=O)OC)C1c1ccccc1Cl (stereo not drawn) [Amlodipine besylate] |  |  |  |  |  |  |  |  |  |  | 3.39 | 1.44 | 1.44 | 1.46
COCCc1ccc(OCC(O)CNC(C)C)cc1 (stereo not drawn) [Metoprolol tartrate] |  |  |  |  |  |  |  |  |  |  | 1.91 | -4.7 | -3.2 | -1.8
NS(=O)(=O)c1cc(C(=O)O)c(NCc2ccco2)cc1Cl [Furosemide] | 67.3 | 79.1 | 94.5 | Weak binder (30–55% bound in one test matrix) |  | 67.3 | 79.1 | 94.5 |  |  |  |  |  | 
Digoxin |  | 103.4 | 109.3 | No binding (<30% drug bound in any test matrix) |  |  | 103.4 | 109.3 |  |  |  |  |  | 
CC(C)c1c(C(=O)Nc2ccccc2)c(-c2ccccc2)c(-c2ccc(F)cc2)n1CC[C@@H](O)C[C@@H](O)CC(=O)O [Atorvastatin calcium] | 91.2 | 101.1 | 93.3 | No binding (<30% drug bound in any test matrix) |  | 91.2 | 101.1 | 93.3 |  |  |  |  |  | 

— paper PMC5843698, “Use of QSPR Modeling to Characterize In Vitro Binding of Drugs to a Gut-Restricted Polymer” (Pharmaceutical Research, 2018)
